Measurements: patent US9370182B2, “Antimicrobial peptide and use thereof” (TOAGOSEI CO., LTD., priority 2012, dated 2016)
Where no end group is shown, it is not given here.

Key:
Format in all cases: cell-based
S. aureus (209P) = conditions: for Antimicrobial activities (MIC in μM) S. aureus: 209P, 24 h
Procedure: (§1) The two bacterial strains (S. aureus, E. coli) were subcultured from storage media to agar plate media (“Mueller Hinton Agar” available from DIFCO), then inoculated into liquid media (“Mueller Hinton broth II” available from DIFCO) and cultured at 30° C. or 37° C. for 24 hours. Subsequently, the aforementioned medium was added to the culture media to dilute and prepare inocula at bacterial concentrations of 2×10^5 cells/mL.
(§2) Antimicrobial activity tests were conducted as follows.
(§3) The peptide-containing solutions prepared to the respective concentrations were aliquoted into 96-well microplates at 20 μL per well. In test sections against the fungus, 80 μL of the MOPS-buffered RPMI1640 medium was added to each well. In test sections against the bacteria, 80 μL of the liquid medium (Mueller Hinton broth II) was added to each well.
(§4) Subsequently, 100 μL of one of the inocula was added to each well and incubation was started in an incubator at 30° C. or 37° C. After 24 hours, the multiplication (growth) of the microorganisms was analyzed by measurements of turbidity (OD600).

E. coli (NIH-JC2) = conditions: for Antimicrobial activities (MIC in μM) E. coli: NIH-JC2, 24 h
Procedure: as §1, §2, §3, §4

C. albicans (NBRC-1594) = conditions: for Antimicrobial activities (MIC in μM) C. albicans: NBRC-1594, 24 h
Procedure: On the other hand, with respect to the one fungus strain (C. albicans), the surface of a slant culture was washed with a physiological saline containing 0.1% Tween® 80 to prepare a conidial suspension. The suspension was filtered with a Falcon® cell strainer and diluted with a MOPS-buffered RPMI1640 medium to prepare an inoculum at a fungus concentration of 2×10^4 cells/mL.
as §2, §3, §4

[1] = summary of Table 2, all microorganism strains

| Sequence | Antimicrobial activities (MIC in μM) S. aureus (S. aureus (209P)) | Antimicrobial activities (MIC in μM) E. coli (E. coli (NIH-JC2)) | Antimicrobial activities (MIC in μM) C. albicans (C. albicans (NBRC-1594)) | Antimicrobial activity in words, S. aureus (S. aureus (209P); [1]) | Antimicrobial activity in words, E. coli (E. coli (NIH-JC2); [1]) | Antimicrobial activity in words, C. albicans (C. albicans (NBRC-1594); [1]) |
| --- | --- | --- | --- | --- | --- | --- |
| MAATGTAAAAATGKLLVLLLLGLTAPAAA [Sample 6] | 8 µM | 16 µM | 16 µM | – | – | – |
| MAATGTAAAAATGRLLLLLLVGLTAPALA [Sample 5] | 8 µM | 16 µM | 16 µM | – | – | – |
| MGPASPAARGLSRRPGQPPLPLLLPLLLLLLRAQPAIG [Sample 3] | 4 µM | 16 µM | 16 µM | – | – | – |
| MGPTSPAARGQGRRWRPPLPLLLPLSLLLLRAQLAVG [Sample 4] | 4 µM | 16 µM | 16 µM | – | – | – |
| MLPGLALLLLAAWTARA [Sample 1] | 16 µM | 32 µM | 32 µM | – | – | – |
| MLPSLALLLLAAWTVRA [Sample 2] | 16 µM | 32 µM | 32 µM | – | – | – |
| TLHQQCIRVLKNNID [Sample 7, reference compound] | >256 µM | >256 µM | >256 µM | no antimicrobial activities were observed | no antimicrobial activities were observed | no antimicrobial activities were observed |
